# In patent US6355799B1, “Substituted benzene compounds, process for their preparation, and herbicidal and defoliant compositions containing them” (ISK Americas Incorporated, priority 1997, dated 2002):
# How the values were obtained:
# Format in all cases: in vivo
# [1] = test system: redroot pigweed (Amaranthus retroflexus, AMARE); experiment: Pre-emerge test, greenhouse herbicide activity screening; conditions: phytotoxicity rating 0-100, 14 days after application
# How it was run: (§1)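 Visual ratings on a 0-100 scale (0 no damage, 100 all plants dead) were taken at 14 days after treatment. Rates of 15-1000 g ai/ha in acetone, 187 l/ha, were sprayed onto soil one day after planting (pre-emerge) or onto 2-3 leaf plants with 0.25% v/v surfactant (post-emerge).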
# [2] = test system: barnyardgrass (Echinochloa crus-galli, ECHCG); experiment: as above; conditions: phytotoxicity rating 0-100, 14 days after application
# How it was run: (§2)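 Plants grown in 10 cm pots of sandy loam mix received acetone-dissolved compounds through a moving flat-fan nozzle. Doses ranged from 15 to 1000 g ai/ha. Pre-emerge pots were seeded one day earlier, post-emerge pots 8–21 days earlier. Fourteen days on, each pot was graded 0–100 for damage.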
# [3] = test system: green foxtail (Setaria viridis, SETVI); experiment: as above; conditions: phytotoxicity rating 0-100, 14 days after application
# How it was run: as §2
# [4] = test system: ivyleaf morningglory (Ipomoea hederacea, IPOHE); experiment: as above; conditions: phytotoxicity rating 0-100, 14 days after application
# How it was run: as §2
# [5] = test system: lambsquarters (Chenopodium album, CHEAL); experiment: as above; conditions: phytotoxicity rating 0-100, 14 days after application
# How it was run: as §2
# [6] = test system: large crabgrass (Digitaria sanguinalis, DIGSA); experiment: as above; conditions: phytotoxicity rating 0-100, 14 days after application
# How it was run: as §2
# [7] = test system: sicklepod (Cassia obtusifolia, CASOB); experiment: as above; conditions: phytotoxicity rating 0-100, 14 days after application
# How it was run: as §2
# [8] = test system: velvetleaf (Abutilon theophrasti, ABUTH); experiment: as above; conditions: phytotoxicity rating 0-100, 14 days after application
# How it was run: as §2
# [9] = test system: field corn (Zea mays L., var. Dekalb 535, CORN); experiment: Pre-emerge test, crop safety; conditions: crop damage rating 0-100, 14 days after application
# How it was run: as §1
# [10] = test system: upland rice (Oryza sp., var. Tebonnet, RICE); experiment: Pre-emerge test, crop safety; conditions: crop damage rating 0-100, 14 days after application
# How it was run: as §1
# [11] = test system: barnyardgrass (Echinochloa crus-galli, ECHCG); experiment: Post-emerge test, greenhouse herbicide activity screening; conditions: post-emerge, 14 days after application, rating scale 0-100
# How it was run: (§3)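 Rating: 0–100 visual injury, 14 DAA. Application: acetone, 187 l/ha, 15–1000 g ai/ha, flat-fan track sprayer with nozzle 40–45 cm above soil or canopy. Post-emerge runs used 0.25% v/v surfactant on 2–3 leaf plants.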
# [12] = test system: green foxtail (Setaria viridis, SETVI); experiment: as above; conditions: post-emerge, 14 days after application, rating scale 0-100
# How it was run: as §3
# [13] = test system: ivyleaf morningglory (Ipomoea hederacea, IPOHE); experiment: as above; conditions: post-emerge, 14 days after application, rating scale 0-100
# How it was run: as §3
# [14] = test system: johnsongrass (Sorghum halepense, SORHA); experiment: as above; conditions: post-emerge, 14 days after application, rating scale 0-100
# How it was run: as §3
# [15] = test system: lambsquarters (Chenopodium album, CHEAL); experiment: as above; conditions: post-emerge, 14 days after application, rating scale 0-100
# How it was run: as §3
# [16] = test system: large crabgrass (Digitaria sanguinalis, DIGSA); experiment: as above; conditions: post-emerge, 14 days after application, rating scale 0-100
# How it was run: as §3
# [17] = test system: redroot pigweed (Amaranthus retroflexus, AMARE); experiment: as above; conditions: post-emerge, 14 days after application
# How it was run: as §3
# [18] = test system: sicklepod (Cassia obtusifolia, CASOB); experiment: as above; conditions: post-emerge, 14 days after application, rating scale 0-100
# How it was run: as §3
# [19] = test system: velvetleaf (Abutilon theophrasti, ABUTH); experiment: as above; conditions: post-emerge, 14 days after application, rating scale 0-100
# How it was run: as §3
# [20] = test system: field corn (Zea mays L., var. Dekalb 535, CORN); experiment: Post-emerge test, crop safety; conditions: post-emerge, 14 days after application, rating scale 0-100
# How it was run: (§4)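 Each test used a mechanized track sprayer delivering 187 l/ha of acetone solution at 15–1000 g ai/ha. Post-emerge foliage at 2–3 leaves was treated with added 0.25% v/v non-ionic surfactant and bottom-watered only. Injury was assessed on day 14, where 100 means total kill.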
# [21] = test system: upland rice (Oryza sp., var. Tebonnet, RICE); experiment: Post-emerge test, crop safety; conditions: post-emerge, 14 days after application, rating scale 0-100
# How it was run: as §4
compound,measurement,setting,value
COc1c(Cl)cc(F)c(-n2c(=O)cc(C(F)(F)F)n(C)c2=O)c1NC(=O)OCc1ccccn1 [4-36],Pre-emerge Herbicidal Activity AMARE,[1]; 63 g ai/ha,90
same,Pre-emerge Herbicidal Activity AMARE,[1]; 250 g ai/ha,100
same,Pre-emerge Herbicidal Activity ECHCG,[2]; 63 g ai/ha,30
same,Pre-emerge Herbicidal Activity ECHCG,[2]; 250 g ai/ha,90
same,Pre-emerge Herbicidal Activity SETVI,[3]; 63 g ai/ha,60
same,Pre-emerge Herbicidal Activity SETVI,[3]; 250 g ai/ha,100
same,Pre-emerge Herbicidal Activity IPOHE,[4]; 63 g ai/ha,100
same,Pre-emerge Herbicidal Activity IPOHE,[4]; 250 g ai/ha,100
same,Pre-emerge Herbicidal Activity CHEAL,[5]; 63 g ai/ha,100
same,Pre-emerge Herbicidal Activity CHEAL,[5]; 250 g ai/ha,100
same,Pre-emerge Herbicidal Activity DIGSA,[6]; 63 g ai/ha,30
same,Pre-emerge Herbicidal Activity DIGSA,[6]; 250 g ai/ha,100
same,Pre-emerge Herbicidal Activity CASOB,[7]; 63 g ai/ha,80
same,Pre-emerge Herbicidal Activity CASOB,[7]; 250 g ai/ha,100
same,Pre-emerge Herbicidal Activity ABUTH,[8]; 63 g ai/ha,100
same,Pre-emerge Herbicidal Activity ABUTH,[8]; 250 g ai/ha,100
same,Pre-emerge Herbicidal Activity CORN,[9]; 63 g ai/ha,90
same,Pre-emerge Herbicidal Activity CORN,[9]; 250 g ai/ha,100
same,Pre-emerge Herbicidal Activity RICE,[10]; 63 g ai/ha,60
same,Pre-emerge Herbicidal Activity RICE,[10]; 250 g ai/ha,95
same,phytotoxicity rating ECHCG,[11]; 63 g ai/ha,20
same,phytotoxicity rating ECHCG,[11]; 250 g ai/ha,60
same,phytotoxicity rating SETVI,[12]; 63 g ai/ha,90
same,phytotoxicity rating SETVI,[12]; 250 g ai/ha,90
same,phytotoxicity rating IPOHE,[13]; 63 g ai/ha,100
same,phytotoxicity rating IPOHE,[13]; 250 g ai/ha,100
same,phytotoxicity rating SORHA,[14]; 63 g ai/ha,10
same,phytotoxicity rating SORHA,[14]; 250 g ai/ha,90
same,phytotoxicity rating CHEAL,[15]; 63 g ai/ha,100
same,phytotoxicity rating CHEAL,[15]; 250 g ai/ha,100
same,phytotoxicity rating DIGSA,[16]; 63 g ai/ha,30
same,phytotoxicity rating DIGSA,[16]; 250 g ai/ha,70
same,phytotoxicity rating AMARE,"[17]; 63 g ai/ha, rating scale 0-100 (0 no damage, 100 complete death)",100
same,phytotoxicity rating AMARE,"[17]; 250 g ai/ha, rating scale 0-100",100
same,phytotoxicity rating CASOB,[18]; 63 g ai/ha,100
same,phytotoxicity rating CASOB,[18]; 250 g ai/ha,100
same,phytotoxicity rating ABUTH,[19]; 63 g ai/ha,100
same,phytotoxicity rating ABUTH,[19]; 250 g ai/ha,100
same,phytotoxicity rating CORN (crop damage),[20]; 63 g ai/ha,50
same,phytotoxicity rating CORN (crop damage),[20]; 250 g ai/ha,100
same,phytotoxicity rating RICE (crop damage),[21]; 63 g ai/ha,60
same,phytotoxicity rating RICE (crop damage),[21]; 250 g ai/ha,100
